Measured values: patent US8962646B2, “Peripherally acting opioid compounds” (Alkermes, Inc., priority 2011, dated 2015)
“Also recorded” adds a separate entry of the source. Counter-ions that a name gives are not always drawn. Like-named read-outs stand apart in the source and are kept apart here.

How the values were obtained:
mice = test: In vivo behavioral studies (clinical observation assay); conditions: 10 mg/kg SC, observed over 24 hours
Procedure: Groups of mice (n=5 per group; >60 days; 20-25 grams weight) were dosed with vehicle (0.9% sterile saline) or test compounds (10 mg/kg free base, SC) 30 minutes before the first observation period. The occurrence of Straub tail, piloerection, hyperlocomotion, hypolocomotion, circling of the cage, sedation, breathing abnormalities, diuresis, seizure activity and occurrences of death were recorded at 0.5, 1, 2, 4, 6 and 24 hours following dosing.
This is tested with our clinical observation assay where mice are injected with 10 mg/kg subcutaneously with drug and the behaviors are noted over 24 hours.

[1] = tested on: CFA-induced weight bearing deficits; test: CFA induced weight bearing deficits in rats; conditions: for Analgesic effect with concurrent intra-plantar 75 ug naloxone methiodide: 10 μg/paw intra-plantar; for Reversal of CFA-induced weight bearing deficits: intra-plantar, 3, 10 and 30 μg/paw
Procedure: Animals were habituated to the weight bearing test apparatus for 2 days prior to the start of the experiment. On Day 0, rats were tested in the weight bearing apparatus to measure baseline weight bearing of untreated hind paws. Following baseline testing, animals were injected intra-plantar with Complete Freund's Adjuvant (CFA). Using a syringe with a locking hub and 25 G needle, rats were injected via rear, left intra-plantar administration with 100 μL of 100% CFA (1.0 mg/ml) while under light isofluorane anesthesia. No treatment was administered to the right, rear, contralateral paw.
Intra-plantar test-compound administration was done while the animal was under light (3%) isofluorane anesthesia using 0.3 ml insulin syringe. The amount of anesthesia given to the animal during test compound administration was limited to a very short duration, so not to impede measurement of weight bearing at the 5 minute time point. On Day 1 (24 hrs post CFA), rats were tested in the weight bearing apparatus to measure CFA-induced changes in weight bearing. […] Following test compound administration, animals were retested in the weight bearing apparatus at the following time points: 5, 15, 30, 60 and 120 minutes post-test compound administration. Animals were retested on Day 2 (post-CFA) if there is a significant change in CFA induced weight bearing at the 120 minute time point on Day 1.

formalin-induced events = test: Formalin model of pain; type: in vivo; conditions: rats; for ED50: Rattus norvegicus, sc, read-out: Formalin test ED50
Procedure: Nonfasted male Harlan rats were assigned to treatment group according to a randomized block study design to balance for test chamber and time of day, and day of test (if applicable). Each rat was administered either vehicle or test compound subcutaneously and then placed in their assigned test chamber and acclimated for 25-30 minutes with the chamber enclosure door left open. Data was not collected during this period. Following the acclimation period, each rat was removed individually starting with chamber 1, and dosed 5% formalin subcutaneously into the right rear paw plantar surface (formalin was made from a 37% stock solution, diluted down to 5% with saline).
Data collection started when the first rat was replaced in chamber 1 and the chamber door was closed and latched (skipped 1-minute acclimation screen on software). The number of events (also defined as “number of seconds”), defined as the number of 1-second bins with a change in dynamic force that exceeded an empirically determined threshold value (a value of arbitrary load units, which corresponded visually with rats quietly breathing or sniffing), were totaled in 5-minute intervals. In control rats, the number of events first increases within 5 minutes and then decreases during the subsequent 5 minutes (a quiescent phase) after formalin administration (Phase I, or Early Phase, of the formalin test), then increases again during the subsequent 35 minutes (Phase II, or Late Phase) of the formalin test. Formalin-induced movements detected by the system include licking and flinching of the affected paw as well as hopping and turning.
For constructing summaries for analysis of dose response curves or screens in the formalin test, the total number of events during the first 5 minutes after formalin administration was considered to be Phase I (Early Phase), and the total number of events for minutes 11 to 35 after formalin was considered to be Phase II (Late Phase). Data were analyzed using 1-way ANOVA, and comparisons of drug treatment groups were compared with control groups using appropriate, statistician-guided tests—most commonly Dunnett's for dose response curves and a Student's t-test for two-group (i.e. vehicle vs. positive control) comparison—utilizing JMP statistical software (SAS Institute Inc, Cary, N.C.). Data was expressed as means±SEM. An ED50 was calculated utilizing GraphPad Prism software.

[2] = tested on: hot plate response latency; test: Rat hot plate model of centrally mediated analgesia
Procedure: Rats were then tested on the hot plate 5, 30, 60, 120, 240 and 360 minutes later. The amount of time it took to lick one hind paw is measured and is considered the response latency. The mean and SEM of the responses latencies for each experimental group were calculated and a line depicting mean hot plate latency vs. time was generated using GraphPad Prism. An increase in mean response latency above baseline following test compound administration is indicative of an antinociceptive effect.

human μ opioid receptor [3] = molecular target: T1, human μ opioid receptor (Homo sapiens (Human), UniProt P35372); conditions: read-out: Binding affinity μ (Ki, nm)
human κ opioid receptor = human κ opioid receptor (Homo sapiens (Human), UniProt P41145); conditions: read-out: Binding affinity κ (Ki, nm)
human δ opioid receptor = human δ opioid receptor (Homo sapiens (Human), UniProt P41143); test: Receptor binding, competitive displacement of [3H]naltrindole; conditions: CHO cell membranes, cloned human receptor, 0.2 nM [3H]naltrindole
human μ opioid receptor [4] = molecular target: T1, human μ opioid receptor; type: biochemical
Procedure: The [^35S]GTPγS assay measures the functional properties of a compound by quantifying the level of G-protein activation following agonist binding in studies using stably transfected cells, and is considered to be a measure of the efficacy of a compound. Membranes from CHO (Chinese Hamster Ovary) cells that stably expressed the cloned human Mu opioid receptor were used in the experiments. In a final volume of 0.5 mL, 12 different concentrations of each test compound were incubated with 7.5 μg of CHO cell membranes that stably expressed the human μ opioid receptor. The assay buffer consisted of 50 mM Tris-HCl, pH 7.4, 3 mM MgCl2, 0.2 mM EGTA, 3 μM GDP, and 100 mM NaCl. The final concentration of [^35S]GTPγS was 0.080 nM. Nonspecific binding was measured by inclusion of 10 μM GTPγS. Binding was initiated by the addition of the membranes. After an incubation of 60 min at 30° C., the samples were filtered through Schleicher & Schuell No. 32 glass fiber filters. The filters were washed three times with cold 50 mM Tris-HCl, pH 7.5, and were counted in 2 mL of Ecoscint scintillation fluid.

[5] = tested on: acetic acid induced writhing; test: Acetic-acid induced writhing model of inflammatory pain; type: in vivo; conditions: mice, intraperitoneal, 1% acetic acid
Procedure: The number of writhes was counted for 15 minutes (3 consecutive 5 minute time bins). […] “Normal” posture was defined as movements opposite to those listed above (e.g. convex curvature of the spine, legs not extended, abdomen not lowered, tail in a straight or relaxed position, etc).
The total number of writhes over the 15 minute test session was used for all data analysis. All data was transformed using GraphPad Prism to % change from daily vehicle control for analysis based on the number of writhes produced by the saline vehicle control group (% change=# writhes in test group/mean # of writhes in daily vehicle control group*100).

[6] = CHO cell membranes, cloned human receptor, 1 nM [3H]U69,593
[7] = read-out: Binding affinity δ (Ki, nm)
[8] = [35S]GTPγS binding, CHO membranes
[9] = CHO cell membranes, cloned human receptor, […] [3H]DAMGO
[10] = uM, read-out: Binding affinity δ (Ki)

## CN1CC[C@]23c4c5ccc(O)c4O[C@H]2[C@@H](O)C=CC3C1C5 (stereo partly shown) [A, morphine, reference compound]
mice
  Clinical Observations after 10 mg/kg subcutaneous injection: Multiple central nervous system like effects: Straub tail, hyperlocomotion, circling
mice; listed as morphine
  Clinical Observations after 10 mg/kg subcutaneous injection: severe effects that reflect mu agonism in the brain
[1]
  Analgesic effect with concurrent intra-plantar 75 ug naloxone methiodide: significantly inhibited
  Reversal of CFA-induced weight bearing deficits: dose-dependent reversal of CFA-induced weight bearing deficits
formalin-induced events; subcutaneous
  ED50: 2.4 mg/kg
formalin-induced events; 10 mg/kg
  Effect on early and late phase of formalin test: completely mitigates both the early and late phase effects of formalin
[2]; SC 7.5 mg/kg, hot plate 52.5° C.
  Hot plate antinociception (response latency): 60 s

## CN1CC[C@]23CC(=O)CC[C@@]2(O)[C@H]1Cc1ccc(C(=O)NCCc2ccc(-c4ccccc4)cc2)c(O)c13.Cl [B, reference compound]
Human μ opioid receptor [3]
  Ki: 0.00039 µM
mice
  Clinical Observations after 10 mg/kg subcutaneous injection: Angioedema; Straub tail, hypolocomotion, mortality
mice; listed as Compound-B
  Clinical Observations after 10 mg/kg subcutaneous injection: severe effects that reflect mu agonism in the brain; also recorded: observed mortality
Human κ opioid receptor; [6]
  Ki: 0.00071 µM
Human δ opioid receptor; [7]
  Ki: 0.0054 µM
Human μ opioid receptor [4]
  In vitro functional agonism for μ receptor Agonist?: Yes

## CN1CC[C@]23CC(=O)CC[C@@]2(O)[C@H]1Cc1ccc(C(=O)NCCc2nc4ccccc4[nH]2)c(O)c13 [Compound 1]
Human μ opioid receptor [3]
  Ki: 0.027 µM
mice
  Clinical Observations after 10 mg/kg subcutaneous injection: None
Human κ opioid receptor; [6]
  Ki: 0.85 µM
Human δ opioid receptor; [7]
  Ki: 0.49 µM
Human μ opioid receptor [4]
  In vitro functional agonism for μ receptor Agonist?: Yes

## O=C1CC[C@@]2(O)[C@H]3Cc4ccc(C(=O)NCCc5ccc(-c6c[nH]c(=O)[nH]c6=O)cc5)c(O)c4[C@@]2(CCN3CCc2ccccc2)C1 [Compound 2, N-{2-[4-(2,4-Dioxo-1,2,3,4-tetrahydropyrimidin-5-yl)phenyl]ethyl}-4,14-dihydroxy-6-oxo-17-(2-phenylethyl)morphinan-3-carboxamide]
mice
  Clinical Observations after 10 mg/kg subcutaneous injection: None
Human μ opioid receptor [4]; [8]
  In vitro functional agonism for μ receptor Agonist?: Yes

## CN1CC[C@]23CC(=O)CC[C@@]2(O)[C@H]1Cc1ccc(C(=O)NCCc2ccc(-c4ccc(=O)[nH]c4)cc2)c(O)c13 [Compound 3]
Human μ opioid receptor [3]; [9]
  Ki: 0.00063 µM
mice
  Clinical Observations after 10 mg/kg subcutaneous injection: None
Human κ opioid receptor; [6]
  Ki: 0.18 µM
Human δ opioid receptor; [7]
  Ki: 0.017 µM
Human μ opioid receptor [4]; [8]
  In vitro functional agonism for μ receptor Agonist?: Yes

## CN1CC[C@]23CC(=O)CC[C@@]2(O)[C@H]1Cc1ccc(C(=O)NCCc2ccc(-c4cnc(O)nc4O)cc2)c(O)c13 [Compound 4]
Human μ opioid receptor [3]; [9]
  Ki: 0.0013 µM
mice
  Clinical Observations after 10 mg/kg subcutaneous injection: None
[1]
  Analgesic effect with concurrent intra-plantar 75 ug naloxone methiodide: significantly inhibited
  Reversal of CFA-induced weight bearing deficits: dose-dependent reversal of CFA-induced weight bearing deficits; also recorded: comparable to that seen with Morphine
formalin-induced events; subcutaneous
  ED50: 3.62 mg/kg
  Early Phase versus Late Phase effect in formalin test: more robust effect of Compound 4 in the Late Phase effects than the Early Phase
formalin-induced events; subcutaneous, dose response
  Effect on formalin-induced events: dose-dependent reversal of formalin-induced events
[5]; Mus musculus, ip
  ED50: 0.7 mg/kg
[5]
  Effect on acetic acid induced writhing: blocked acetic acid induced writhing in a dose-dependent manner
[2]; SC 100 mg/kg
  Hot plate efficacy at the highest dose tested: sub-maximal efficacy
[2]; SC 10, 30 and 100 mg/kg
  Hot plate activity compared with morphine: significantly less active than morphine
Human κ opioid receptor
  Ki: 0.19 µM
Human δ opioid receptor; [10]
  Ki: > 1 µM
Human μ opioid receptor [4]; [8]
  In vitro functional agonism for μ receptor Agonist?: Yes

## C=C1CC[C@@]2(O)[C@H]3Cc4ccc(C(=O)NCCc5ccc(-c6c[nH]c(=O)[nH]c6=O)cc5)c(O)c4[C@@]2(CCN3C)C1 [Compound 6]
Human μ opioid receptor [3]; [9]
  Ki: 0.0035 µM
mice
  Clinical Observations after 10 mg/kg subcutaneous injection: None
Human κ opioid receptor; [6]
  Ki: 1 µM
Human δ opioid receptor; [7]
  Ki: 0.097 µM
Human μ opioid receptor [4]; [8]
  In vitro functional agonism for μ receptor Agonist?: Yes

## CO[C@@]12CCC(=O)C[C@@]13CCN(C)[C@@H]2Cc1ccc(C(=O)NCCc2ccc(-c4c[nH]c(=O)[nH]c4=O)cc2)c(O)c13 [Compound 7]
Human μ opioid receptor [3]
  Ki: 0.00052 µM
mice
  Clinical Observations after 10 mg/kg subcutaneous injection: None
Human κ opioid receptor; [6]
  Ki: 0.86 µM
Human δ opioid receptor; [7]
  Ki: 0.042 µM
Human μ opioid receptor [4]
  In vitro functional agonism for μ receptor Agonist?: Yes

## CN1CC[C@]23CC(=O)CC[C@@]2(O)[C@H]1Cc1ccc(C(=O)NCCc2ccc(-c4cn[nH]c4)cc2)c(O)c13 [Compound 8]
Human μ opioid receptor [3]; [9]
  Ki: 0.00015 µM
mice
  Clinical Observations after 10 mg/kg subcutaneous injection: None
Human κ opioid receptor; [6]
  Ki: 0.019 µM
Human δ opioid receptor; [7]
  Ki: 0.0021 µM
Human μ opioid receptor [4]; [8]
  In vitro functional agonism for μ receptor Agonist?: Yes

## CN1CC[C@]23CC(=O)CCC2[C@H]1Cc1ccc(C(=O)NCCc2nc4ccccc4[nH]2)c(O)c13 (stereo partly shown) [Compound 9]
Human μ opioid receptor [3]; [9]
  Ki: 0.0017 µM
mice
  Clinical Observations after 10 mg/kg subcutaneous injection: None
Human κ opioid receptor; [6]
  Ki: 0.4 µM
Human δ opioid receptor; [7]
  Ki: 0.28 µM
Human μ opioid receptor [4]; [8]
  In vitro functional agonism for μ receptor Agonist?: Yes

## CN1CC[C@]23CC(=O)CC[C@@]2(O)[C@H]1Cc1ccc(C(=O)NCCc2ccc(-c4cc[nH]c(=O)c4)cc2)c(O)c13 [Compound 10, 4,14-dihydroxy-N-{2-[4-(2-hydroxypyridin-4-yl)phenyl]ethyl}-17-methyl-6-oxomorphinan-3-carboxamide]
Human μ opioid receptor [3]; [9]
  Ki: 0.00043 µM
mice
  Clinical Observations after 10 mg/kg subcutaneous injection: None
Human κ opioid receptor
  Ki: 0.14 µM
Human δ opioid receptor; [7]
  Ki: 0.01 µM
Human μ opioid receptor [4]; [8]
  In vitro functional agonism for μ receptor Agonist?: Yes

## CN1CC[C@]23CC(=O)CC[C@@]2(O)[C@H]1Cc1ccc(C(=O)NCCc2ccc(-c4cnc(=O)[nH]c4)cc2)c(O)c13 [Compound 11, 4,14-dihydroxy-17-methyl-6-oxo-N-{2-[4-(2-oxo-1,2-dihydropyrimidin-5-yl)phenyl]ethyl}morphinan-3-carboxamide maleate salt]
Human μ opioid receptor [3]; [9]
  Ki: 0.0016 µM
mice
  Clinical Observations after 10 mg/kg subcutaneous injection: None
Human δ opioid receptor; [10]
  Ki: > 1 µM
Human μ opioid receptor [4]; [8]
  In vitro functional agonism for μ receptor Agonist?: Yes

## (4bS,9R)—N-(4-(2,4-dioxo-1,2,3,4-tetrahydropyrimidin-5-yl)phenethyl)-4-hydroxy-11-methyl-6-oxo-6,7,8,8a,9,10-hexahydro-5H-9,4b-(epiminoethano)phenanthrene-3-carboxamide [Compound 5]
Human μ opioid receptor [3]; [9]
  Ki: 0.0017 µM
mice
  Clinical Observations after 10 mg/kg subcutaneous injection: None
Human κ opioid receptor
  Ki: 0.68 µM
Human δ opioid receptor; [7]
  Ki: 0.051 µM
Human μ opioid receptor [4]; [8]
  In vitro functional agonism for μ receptor Agonist?: Yes
